Measured values published in EP4692061A1, “LOW-MOLECULAR-WEIGHT COMPOUND HAVING CEREBLON-BINDING ACTIVITY, AND USE THEREOF” (Aevis Bio, Inc., priority 2023, dated 2024).

Assays:
[1] = molecular target: cereblon (CRBN) (Homo sapiens, UniProt Q96SW2); assay: In vitro CRBN binding assay (AlphaScreen, competitive inhibition of the PROTAC assay); details: Table 1; AlphaScreen, PROTAC Optimization Kit for BET Bromodomain-Cereblon Binding; read-out: Alpha IC50
[2] = test system: MM.1S; assay: Tumor cell viability, CCK-8 assay, MM.1S; type: cell-based; details: MM.1S (human multiple myeloma); compound treatment 1uM; 5 days
Description: (§1) To examine whether the compounds having CRBN-binding activity according to the present invention exert tumor cell apoptosis effects, the assay was conducted using various human cancer cell lines, including human multiple myeloma cell lines (MM.1S and MM.1R-LR), a human breast cancer cell line (MDA-MB-231), a human lung cancer cell line (A549), a human rhabdomyosarcoma cell line (RD), and a human lymphoma cell line (Jeko-1).
(§2) The MM.1S, MM.1R-LR, MDA-MB-231, A549, RD, and Jeko-1 cell lines were obtained from the American Type Culture Collection (ATCC, Manassas, VA, USA) and cultured in RPMI 1640 medium (Corning, MD, USA) or DMEM (Corning, MD, USA) supplemented with 10% fetal bovine serum (FBS) (Corning, MD, USA), 100 U/mL penicillin (Corning, MD, USA), and 100 µg/mL streptomycin (Corning, MD, USA) at 37°C in a 5% CO2 incubator for 24 hours. The cells were seeded at a density of 1 × 10^4 cells/well in 96-well plates and incubated for 24 hours. After incubation, the test compounds dissolved in dimethyl sulfoxide (DMSO, CAS No.: 67-68-5) were serially diluted to a final concentration of 10 µM and applied to the cells. Following an additional incubation for 2 to 5 days, the analysis was performed using a CCK-8 assay kit (Dojindo, Japan) according to the manufacturer's instructions.

[3] = test system: MDA-MB-231; assay: Tumor cell viability, CCK-8 assay, MDA-MB-231; type: cell-based; details: MDA-MB-231 (human breast cancer); compound treatment 1uM; 2 days
Description: as §1, §2

[4] = test system: A549; assay: Tumor cell viability, CCK-8 assay, A549; type: cell-based; details: A549 (human lung cancer); compound treatment 1uM; 2 days
Description: as §1, §2

[5] = test system: MM.1R-LR; assay: Tumor cell viability, CCK-8 assay, MM.1R-LR; type: cell-based; details: MM.1R-LR (drug-resistant human multiple myeloma); compound treatment 1uM; 5 days
Description: as §1, §2

[6] = test system: RD; assay: Tumor cell viability, CCK-8 assay, RD; type: cell-based; details: RD (human rhabdomyosarcoma); compound treatment 1uM; 3 days
Description: as §1, §2

SMILES | IC50 [1] [nM] | further results
Cc1cccc(CNc2cccc(C3CCC(=O)NC3=O)c2)c1 (centres unmarked) [AEV40106] | 1140 | 
O=C1CCC(c2cccc(NC(=O)c3ccc(F)cc3F)c2)C(=O)N1 (centres unmarked) [AEV40164] | 1670 | 
Cc1cn(C)nc1CNc1cccc(C2CCC(=O)NC2=O)c1 (centres unmarked) [AEV40113] | 660 | 
O=C1CCC(c2cccc(NC(=O)Nc3ccc(C(F)(F)F)cc3)c2)C(=O)N1 (centres unmarked) [AEV40133] | 1260 | 
O=C1CCC(c2cccc(NC(=O)Nc3ccc(Cl)cc3)c2)C(=O)N1 (centres unmarked) [AEV40131] | 190 | 
Cc1ccc(NC(=O)NCc2cccc(Nc3cccc(C4CCC(=O)NC4=O)c3)c2)cc1Cl (centres unmarked) [AEV40192] | 3220 | 
O=C1CCC(c2cccc(NS(=O)(=O)c3cccc(NC(=O)c4ccc(CCCCl)cc4)c3)c2)C(=O)N1 (centres unmarked) [AEV41004, 4-(3-chloropropyl)-N-(3-(N-(3-(2,6-dioxopiperidin-3-yl)phenyl)sulfamoyl)phenyl)benzamide] | 1570 | Cell viability (% of control) [2]: 10.5 % of control; Cell viability (% of control) [3]: 83.5 % of control; Cell viability (% of control) [4]: 101.9 % of control; Cell viability (% of control) [5]: 63.8 % of control; Cell viability (% of control) [6]: 78.6 % of control
O=C1CCC(c2cccc(NS(=O)(=O)c3cccc(NC(=O)c4cccc(Br)c4)c3)c2)C(=O)N1 (centres unmarked) [AEV40157] | 730 | 
CCCOc1ccc(C(=O)Nc2cccc(S(=O)(=O)Nc3cccc(C4CCC(=O)NC4=O)c3)c2)cc1 (centres unmarked) [AEV40193] | 860 | 
CC1CCC(C(=O)Nc2cccc(S(=O)(=O)Nc3cccc(C4CCC(=O)NC4=O)c3)c2)CC1 (centres unmarked) [AEV40224] | 2130 | 
O=C1CCC(c2cccc(NS(=O)(=O)c3cccc(NC(=O)c4ccc(CCl)cc4)c3)c2)C(=O)N1 (centres unmarked) [AEV41002, 4-(chloromethyl)-N-(3-(N-(3-(2,6-dioxopiperidin-3-yl)phenyl)sulfamoyl)phenyl)benzamide] | 170 | Cell viability (% of control) [2]: 97.8 % of control; Cell viability (% of control) [5]: 90.2 % of control

Now from value to compound, other results behind:

IC50 [1] [nM] | SMILES | further results
2140 | O=C1CCC(c2cccc(NC(=O)c3cc4ccccc4[nH]3)c2)C(=O)N1 (centres unmarked) [AEV40190] | 
1650 | CCCCc1ccc(C(=O)Nc2cccc(Nc3cccc(C4CCC(=O)NC4=O)c3)c2)cc1 (centres unmarked) [AEV40221] | 
1490 | O=C1CCC(c2cccc(NCc3cccc(F)c3)c2)C(=O)N1 (centres unmarked) [AEV40107] | 
1120 | Nc1ccc(S(=O)(=O)Nc2cccc(C3CCC(=O)NC3=O)c2)cc1C(F)(F)F (centres unmarked) [AEV40075] | 
3690 | Nc1cccc(N2CCOc3cc(C4CCC(=O)NC4=O)ccc3C2=O)c1 (centres unmarked) [AEV40206] | 
1300 | O=C1CCC(c2cccc(NS(=O)(=O)c3ccc(F)cc3)c2)C(=O)N1 (centres unmarked) [AEV40101] | 
3110 | CC(C)C(=O)Nc1ccc(F)c(C2CCC(=O)NC2=O)c1 (centres unmarked) [AEV40035] | 
910 | O=C1CCC(c2cccc(NS(=O)(=O)c3cccc([N+](=O)[O-])c3)c2)C(=O)N1 (centres unmarked) [AEV40056] | 
> 100000 | O=C1CCC(c2cccc(Nc3cccc(CCC(=O)NC4CC5(C4)CC(C(=O)O)C5)c3)c2)C(=O)N1 (centres unmarked) [AEV40211] | 
960 | CC(=O)N1CCC(NC(=O)CCc2cccc(Nc3cccc(C4CCC(=O)NC4=O)c3)c2)CC1 (centres unmarked) [AEV40200] | 
> 10000 | O=C1CCC(c2cccc(NC(=O)c3ccc(-c4ccccc4)cc3)c2)C(=O)N1 (centres unmarked) [AEV40161] | 
